Experimental findings from ChEMBL document CHEMBL5137012, “The role of the maleimide ring system on the structure-activity relationship of showdomycin” (Eur J Med Chem, 2022) are described below.

The subject of series [1] is Escherichia coli. The series can be described thus: Antibacterial activity against Escherichia coli K12 expressing modified luxABCDE genes assessed as reduction in bacterial growth by measuring reduction in optical density incubated for 16 hrs by microplate reader analysis. It is filed as functional, organism-based. Particulars: DDE = dose-dependent effect.
In series [2] the test system is Escherichia coli. The experiment in a line: Antibacterial activity against Escherichia coli K12 expressing modified luxABCDE genes assessed as reduction in bacterial growth by measuring reduction in bioluminescence incubated for 16 hrs by microplate reader analysis. The settings on record: DDE = dose-dependent effect. It is filed as functional, organism-based.
In series [3] the test system is Escherichia coli. The series can be described thus: Substrate activity at Escherichia coli RNA polymerase assessed as extension of transcription elongation complex by measuring incorporation into RNA in place of UTP at 100 uM incubated for 1 min in presence of GTP by PAGE analysis.
Series [4] deals with Escherichia coli. The experiment in a line: Antibacterial activity against Escherichia coli K12 expressing modified luxABCDE genes assessed as reduction in bacterial growth by measuring reduction in optical density at 40 uM incubated for 16 hrs by microplate reader analysis. Type of series: functional, organism-based.
Series [5] has as its system Escherichia coli. The series can be described thus: Antibacterial activity against Escherichia coli K12 expressing modified luxABCDE genes assessed as reduction in bacterial growth by measuring reduction in bioluminescence at 40 uM incubated for 16 hrs by microplate reader analysis. Type of series: functional, organism-based.
Series [6] concerns Escherichia coli. The experiment in a line: Antibacterial activity against Escherichia coli K12 expressing modified luxABCDE genes assessed as reduction in bacterial growth by measuring reduction in bioluminescence at 0.002 to 2.5 mM incubated for 16 hrs by microplate reader analysis. Type of series: functional, organism-based. Particulars: dose 0.002-2.5 mM.
Series [7] relates to HEK-293T. The experiment in a line: Cytotoxicity against HEK293T cells assessed as morphological changes at 30 uM. Type of series: toxicity, cell-based. The settings on record: human.
Series [8] has as its system Escherichia coli. The experiment in a line: Bactericidal activity against Escherichia coli K12 expressing modified luxABCDE genes assessed as reduction in luminescence at 0.625 mM incubated for 16 hrs by microplate reader analysis. It is filed as functional, organism-based.
In series [9] the test system is HEK-293T. The experiment in a line: Cytotoxicity against HEK293T cells assessed as reduction in viable cells at 125 uM incubated for 24 hrs by CCK-8 assay. Particulars: human. Type of series: toxicity, cell-based. For orientation: Tetrazolium assays rely on reduction of a dye to a coloured formazan, in cell work by metabolically active cells.
For series [10], the system named is HEK-293T. The series can be described thus: Cytotoxicity against HEK293T cells at 30 uM incubated for 24 hrs by LDH assay. Type of series: toxicity, cell-based. The settings on record: human.
The subject of series [11] is Escherichia coli. The series can be described thus: Antibacterial activity against Escherichia coli K12 expressing modified luxABCDE genes assessed as reduction in bacterial growth by measuring reduction in optical density at 0.002 to 2.5 mM incubated for 16 hrs by microplate reader analysis. It is filed as functional, organism-based. Particulars: dose 0.002-2.5 mM.

For series [12], the system named is Saccharomyces cerevisiae. The experiment in a line: Substrate activity at Saccharomyces cerevisiae RNA polymerase 2 assessed as extension of transcription elongation complex by measuring incorporation into RNA in place of UTP at 100 uM incubated for 1 min in presence of GTP by PAGE analysis.
Series [13] concerns Escherichia coli. The experiment in a line: Inhibition of Escherichia coli RNA polymerase-mediated processive transcription elongation at polythymidine sequence at 2 mM incubated for 5 mins by PAGE analysis.
Series [14] relates to Saccharomyces cerevisiae. The experiment in a line: Inhibition of Saccharomyces cerevisiae RNA polymerase 2-mediated processive transcription elongation at polythymidine sequence at 2 mM incubated for 5 mins by PAGE analysis.
The species entered for series [15] is Homo sapiens. The experiment in a line: Substrate activity at human mitochondria RNA polymerase assessed as extension of transcription elongation complex by measuring incorporation into RNA in place of UTP at 100 uM incubated for 1 min in presence of GTP by PAGE analysis.
For series [16], the species on record is Homo sapiens. The experiment in a line: Substrate activity at human mitochondria RNA polymerase assessed as two nucleotide extension of transcription elongation complex by measuring incorporation of 4-ethylthioshowdomycin-5'-monophosphate into RNA at 100 uM incubated for 1 min in presence of GTP by ATTO680 fluorophore based PAGE analysis.
Series [17] deals with Escherichia coli. The series can be described thus: Substrate activity at Escherichia coli RNA polymerase assessed as one nucleotide extension of transcription elongation complex by measuring incorporation of 4-ethylthioshowdomycin-5'-monophosphate into RNA at 100 uM incubated for 1 min by ATTO680 fluorophore based PAGE analysis.
For series [18], the species on record is Homo sapiens. The experiment in a line: Substrate activity at human mitochondria RNA polymerase assessed as one nucleotide extension of transcription elongation complex by measuring incorporation of 4-ethylthioshowdomycin-5'-monophosphate into RNA at 100 uM incubated for 1 min by ATTO680 fluorophore based PAGE analysis.
Series [19] deals with HEK-293T. The series can be described thus: Cytotoxicity against HEK293T cells at 125 uM incubated for 24 hrs by LDH assay. Type of series: toxicity, cell-based. The settings on record: human.
Series [20] concerns Escherichia coli. The series can be described thus: Antibacterial activity against Escherichia coli K12 expressing modified luxABCDE genes assessed as reduction in bacterial growth by measuring reduction in bioluminescence at 0.002 to 2.5 mM incubated for 16 hrs in presence of uridine at 0.002 to 12.5 mM by microplate reader analysis. Type of series: functional, organism-based. The settings on record: dose 0.002-2.5 mM.

The test system of series [21] is Escherichia coli. The series can be described thus: Bactericidal activity against Escherichia coli K12 expressing modified luxABCDE genes assessed as reduction in luminescence at 2.5 mM incubated for 16 hrs by microplate reader analysis. Type of series: functional, organism-based.
For series [22], the system named is Escherichia coli. The experiment in a line: Antibacterial activity against Escherichia coli K12 expressing modified luxABCDE genes assessed as reduction in bacterial growth by measuring reduction in optical density at 0.002 to 2.5 mM incubated for 16 hrs in presence of uridine at 0.002 to 12.5 mM by microplate reader analysis. It is filed as functional, organism-based. The settings on record: dose 0.002-2.5 mM.

The subject of series [23] is HEK-293T. The experiment in a line: Cytotoxicity against HEK293T cells assessed as reduction in viable cells at 500 uM incubated for 24 hrs by CCK-8 assay. It is filed as toxicity, cell-based. Particulars: human.
Series [24] deals with HEK-293T. The series can be described thus: Cytotoxicity against HEK293T cells assessed as morphological changes at 125 uM. Type of series: toxicity, cell-based. The settings on record: human.
The subject of series [25] is Escherichia coli. The experiment in a line: Antibacterial activity against Escherichia coli K12 expressing modified luxABCDE genes assessed as reduction in bacterial growth by measuring reduction in bioluminescence at low concentrations measured after 250 mins by microplate reader analysis. Type of series: functional, organism-based.

Active and inactive are the calls of the source. The calls are words filed in the database; no cut-off is given here.

Regarding `N=C(N)NCC(=O)N(O)C(CCC(N)=O)C(=O)NC[C@H]1O[C@@H](c2c[nH]c(=O)[nH]c2=O)[C@H](O)[C@@H]1O` (stereo partly drawn), the Activity entry in [1] and in series [2] was “Dde” each time.
`C[C@@H](SC1=C([C@@H]2O[C@H](COP(=O)(O)OP(=O)(O)OP(=O)(O)O)[C@@H](O)[C@H]2O)C(=O)NC1=O)C(=O)O`: the result in series [3] was Active.
`CN[C@@H]1[C@@H](O[C@H]2O[C@H](CO)[C@@H](N)[C@H](O)[C@H]2O)O[C@H]2C[C@@H](N)[C@@H](O[C@H]3[C@H](O)[C@@H](O)[C@H](N)C[C@@H]3N)O[C@@H]2[C@@H]1O`: the result in series [4] and in series [5] was Active.
In the case of `C[C@H](SC1=C([C@@H]2O[C@H](COP(=O)(O)OP(=O)(O)OP(=O)(O)O)[C@@H](O)[C@H]2O)C(=O)NC1=O)C(=O)O`, the outcome in [3] was Active.
`O=C1C=C([C@@H]2O[C@H](CO)[C@@H](O)[C@H]2O)C(=O)N1`: the outcome in series [6], in series [8] and in series [11] was Active. Besides, the Activity entry in series [7], in [9] and in [10] was “Toxic” throughout.
As for `NC[C@H]1O[C@H](O[C@H]2[C@H](O)[C@@H](O[C@H]3O[C@H](CO)[C@@H](O)[C@H](N)[C@H]3O)[C@H](N)C[C@@H]2N)[C@H](O)[C@@H](O)[C@@H]1O`, the result in series [4] and in series [5] was Active.
With `O=C1NC(=O)C([C@@H]2O[C@H](COP(=O)(O)OP(=O)(O)OP(=O)(O)O)[C@@H](O)[C@H]2O)=C1Br`, the outcome in [12], in [3] and in series [15] was Active. For the same molecule, the inhibition entry in [13] and in series [14] was “Active” in each case.
In the case of `C[Se]C1=C([C@@H]2O[C@H](COP(=O)(O)OP(=O)(O)OP(=O)(O)O)[C@@H](O)[C@H]2O)C(=O)NC1=O`, the result in series [12], in series [3] and in series [15] was Active. Moreover, the inhibition entry in series [13] and in [14] was “Active” each time.
For `CCSC1=C([C@@H]2O[C@H](COP(=O)(O)OP(=O)(O)OP(=O)(O)O)[C@@H](O)[C@H]2O)C(=O)NC1=O`, the outcome in series [16], in series [17] and in series [18] was Active. The inhibition result in series [13] and in series [14] was “Active” each time.
On to `CSC1=C([C@@H]2O[C@H](COP(=O)(O)OP(=O)(O)OP(=O)(O)O)[C@@H](O)[C@H]2O)C(=O)NC1=O`, for which the outcome in [12], in series [3] and in series [15] was Active. Moreover, the inhibition result in series [13] and in series [14] was “Active” in each case.
`CCSC1=C([C@@H]2O[C@H](CO)[C@@H](O)[C@H]2O)C(=O)NC1=O`: the Activity result in series [19], in series [23] and in series [24] was “Toxic” in each case. Besides, the result in series [20], in series [6], in series [21], in series [22], in series [25] and in series [11] was Active.
